Consider three compounds from patent US10125142B2, “Method for purifying mitomycin C” (Kyowa Hakko Kirin Co., Ltd., priority 2015, dated 2018).

A short description of this data set: Change in the number of particles in mitomycin C in a stability test under severe conditions (MFI DPA5200 particle quantification). Type of data set: physicochemical. To be noted: for number of particles ≥10 μm in 10 mg of mitomycin C / number of particles ≥25 μm in 10 mg of mitomycin C: average of triplicates; for change in number of particles having a diameter of 10 μm or more / change in number of particles having a diameter of 25 μm or more: after 300-hour exposure to severe conditions (50° C.), result in words. As for the experimental part: Change in the Number of Particles in Mitomycin C in a Stability Test under Severe Conditions
300 mg of each mitomycin C prepared in Example 1 and Comparative Examples 1 and 2 is separately placed into a vial, and stored at 50° C. under uncontrolled humidity. Sampling was performed after 0, 191 and 300 hours from the onset of the storage, and whether the number of particles would increase was examined according to the following section “Quantification of Particles in Mitomycin C”.
Quantification of Particles in Mitomycin C
10 mg of mitomycin C was weighed out accurately, water for injection was added to make up the volume to 25 mL exactly, and the resulting solution was used as a sample solution.
The particles in mitomycin C were analyzed with MFI DPA5200 (Protein Simple). Prior to the analysis of the sample solution, the passage in the analytical device was washed with water for injection to obtain the particle-free baseline. 1 mL of the sample solution was drawn into a pipette tip and then loaded on the sample holder. The sample solution was allowed to pass into the passage at a flow rate 0.1 mL/min to completely replace the liquid in the passage, and then the analysis of the sample; solution was started (volume for analysis: 0.61 mL).
The obtained data was filtered on MVAS 1.3 software to extract particles having an aspect ratio of less than 0.85 for the purpose of excluding bubbles. The number of particles having a diameter of 10 μm or more in 10 mg of mitomycin C and the number of particles having a diameter of 25 μm or more in 10 mg of mitomycin C were separately counted using Microsoft Excel.
The above procedure was repeated 3 times, and the average value of the triplicates was used as the quantitative value.

Setting [1] is: 191 hours storage at 50° C. under uncontrolled humidity.
Where [2] appears, read: 300 hours storage at 50° C. under uncontrolled humidity.
Where [3] appears, read: Initial (0 hours), storage at 50° C. under uncontrolled humidity.

As to `CO[C@@]12[C@H](COC(N)=O)C3=C(C(=O)C(C)=C(N)C3=O)N1C[C@@H]1N[C@@H]12` [Comparative Example 1, Mitomycin C], the “change in number of particles having a diameter of 10 μm or more” value (“change in number … of 10 μm or more” for short) was “significant increase” and the “change in number of particles having a diameter of 25 μm or more” value (from here on “change in number … of 25 μm or more”) is on record as “significant increase”. In addition, under setting [1], the “number of particles ≥10 μm in 10 mg of mitomycin C” value (shortened to “number of particles ≥10 μm”) turned out to be 7063 and the “number of particles ≥25 μm in 10 mg of mitomycin C” value (from here on “number of particles ≥25 μm”) is 861. Besides, under setting [2], the “number of particles ≥10 μm” value worked out at 22527 and the “number of particles ≥25 μm” value stood at 3005. Under setting [3], the “number of particles ≥10 μm” value is reported as 2118 and the “number of particles ≥25 μm” value was 246.
Turning to `CO[C@@]12[C@H](COC(N)=O)C3=C(C(=O)C(C)=C(N)C3=O)N1C[C@@H]1N[C@@H]12` [Comparative Example 2, Mitomycin C], the “change in number … of 10 μm or more” value was “significant increase” and the “change in number … of 25 μm or more” value is “significant increase”. Under setting [1], the “number of particles ≥10 μm” value came out at 279617 and the “number of particles ≥25 μm” value is reported as 51953. Under setting [2], the “number of particles ≥10 μm” value worked out at 301967 and the “number of particles ≥25 μm” value turned out to be 36216. Further, under setting [3], the “number of particles ≥10 μm” value was determined as 3853 and the “number of particles ≥25 μm” value is on record as 178.
In the case of `CO[C@@]12[C@H](COC(N)=O)C3=C(C(=O)C(C)=C(N)C3=O)N1C[C@@H]1N[C@@H]12` [Example 1, mitomycin C], the “change in number … of 10 μm or more” value is “almost no increase” and the “change in number … of 25 μm or more” value is reported as “almost no increase”. Moreover, under setting [1], the “number of particles ≥10 μm” value turned out to be 3624 and the “number of particles ≥25 μm” value came out at 273. Also, under setting [2], the “number of particles ≥10 μm” value is recorded as 5683 and the “number of particles ≥25 μm” value worked out at 314. Besides, under setting [3], the “number of particles ≥10 μm” value is 3047 and the “number of particles ≥25 μm” value came out at 151.
